One block for each compound: values may come before it.
How the values were obtained:
human myosin-6 (M6-2R) [1] = target: T1, human myosin-6 (M6-2R) (Homo sapiens, UniProt Q9UM54); assay: actin-activated ATPase assay (NADH-coupled), biphasic inhibition; binding also by MST (data not shown); type: biochemical; parameters: gene MYO6; amino acids 1-816 of human myosin-6 motor domain fused to an artificial lever derived from Dictyostelium discoideum α-actinin (M6-2R); with F-actin (rabbit skeletal muscle); calmodulin associated with insert-2
T1 sequence (Q9UM54 1-816): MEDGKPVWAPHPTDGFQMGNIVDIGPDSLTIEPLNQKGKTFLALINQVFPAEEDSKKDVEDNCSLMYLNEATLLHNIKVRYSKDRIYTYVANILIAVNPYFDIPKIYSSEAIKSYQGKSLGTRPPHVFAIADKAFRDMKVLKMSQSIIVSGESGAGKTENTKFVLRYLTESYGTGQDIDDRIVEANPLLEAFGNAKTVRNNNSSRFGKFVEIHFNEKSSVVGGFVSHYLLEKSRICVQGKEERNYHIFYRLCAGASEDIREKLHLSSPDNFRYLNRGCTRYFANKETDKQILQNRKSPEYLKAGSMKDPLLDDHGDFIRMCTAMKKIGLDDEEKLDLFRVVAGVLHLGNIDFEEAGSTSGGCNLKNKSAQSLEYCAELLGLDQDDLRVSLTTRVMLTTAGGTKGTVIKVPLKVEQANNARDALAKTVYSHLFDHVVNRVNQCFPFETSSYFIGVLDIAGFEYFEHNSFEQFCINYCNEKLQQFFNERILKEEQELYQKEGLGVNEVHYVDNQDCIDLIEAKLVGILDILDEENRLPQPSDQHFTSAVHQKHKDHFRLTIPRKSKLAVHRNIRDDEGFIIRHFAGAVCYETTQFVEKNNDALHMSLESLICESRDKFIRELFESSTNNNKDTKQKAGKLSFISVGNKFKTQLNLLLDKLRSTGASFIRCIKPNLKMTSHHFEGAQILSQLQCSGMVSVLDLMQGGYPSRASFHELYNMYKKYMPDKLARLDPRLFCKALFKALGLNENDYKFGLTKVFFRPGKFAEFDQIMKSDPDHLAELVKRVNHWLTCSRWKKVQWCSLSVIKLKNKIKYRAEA

human myosin-6 (M6-2R) [2] = target: T1, human myosin-6 (M6-2R); assay: stopped-flow, ATP binding to pyrene-acto•M6-2R; steady-state ATPase turnover; parameters: gene MYO6; M6-2R (human myosin-6 motor domain, amino acids 1-816, fused to artificial lever); with F-actin (pyrene-actin)
Source text: stopped-flow, ATP binding to pyrene-acto•M6-2R; steady-state ATPase turnover on human myosin-6 (M6-2R) | ATP binding to the complex formed by pyrene–actin and M6-2R show a linear dependence on [ATP]

human myosin-6 (M6-2R) [3] = target: T1, human myosin-6 (M6-2R); assay: stopped-flow fluorescence, KD = k−D/k+D; type: binding; parameters: gene MYO6; M6-2R (human myosin-6 motor domain, amino acids 1-816, fused to artificial lever); conditions: read-out: Hs Myosin-6 ^a^, ^b
human myosin-6 = target: T2, human myosin-6 (Homo sapiens, UniProt Q9UM54); assay: myosin-6 ATPase assay; MST affinity ranking; type: biochemical
T2 construct: gene MYO6; human myosin-6 motor domain construct M6-2R (amino acids 1-816)
T2 sequence (Q9UM54 1-816): as above

human myosin-6 (M6-2R) [4] = target: T1, human myosin-6 (M6-2R); assay: stopped-flow fluorescence, second-order binding rate constant K1k+[…]; parameters: gene MYO6; M6-2R (human myosin-6 motor domain, amino acids 1-816, fused to artificial lever)

Compound: Oc1c(I)cc(I)cc1I [TIP, 2,4,6-triiodophenol]
Ki (human myosin-6 (M6-2R) [1]): 800 ± 500 nM

Compound: Nc1ncnc2c1ncn2[C@@H]1O[C@H](COP(=O)(O)OP(=O)(O)OP(=O)(O)O)[C@@H](O)[C@H]1O [ATP]
kon (human myosin-6 (M6-2R) [2]): 11000 ± 300 M⁻¹ s⁻¹

Compound: mantADP
Kd (human myosin-6 (M6-2R) [3]): 2000 ± 150 nM

Compound: Oc1c(Br)c(Br)c(Br)c(Br)c1Br [pentabromophenol]
myosin-6 ATPase assay; MST affinity ranking (human myosin-6): Pentabromophenol and TIP inhibit myosin-6 ATPase activity in the low micromolar range

kon (human myosin-6 (M6-2R) [4]): 50000 ± 10000 M⁻¹ s⁻¹
Compound: CNc1ccccc1C(=O)O[C@H]1C[C@H](n2cnc3c(N)ncnc32)O[C@@H]1COP(=O)(O)OP(=O)(O)OP(=O)(O)O [d-mantATP, 2′-deoxy-3′-O-(N′-methylanthraniloyl)adenosine-5′-O-triphosphate]

Reference: publication PMC3527664, “Kinetic properties and small-molecule inhibition of human myosin-6” (Febs Letters, 2012)
